Source: US20240158446A1, “CYCLIC COMPOUND HAVING SELECTIVE INHIBITORY ACTION ON KRAS OVER HRAS AND NRAS” (CHUGAI SEIYAKU KABUSHIKI KAISHA, priority 2021, published 2024)

Legend:
[1] = test system: human lung cancer strain NCI-H441;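 also: cell proliferation inhibition after four days measured by CellTiter-Glo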
[2] = target: GDP-bound NRAS wild-type protein (Homo sapiens, UniProt P01111); assay: Binding to NRAS by surface plasmon resonance (SPR), Single Cycle Kinetics; conditions: SPR; GDP-bound NRAS wild-type protein vs GDP-bound KRAS wild-type protein; KD ratio class
Chain of GDP-bound NRAS wild-type protein (P01111 whole entry): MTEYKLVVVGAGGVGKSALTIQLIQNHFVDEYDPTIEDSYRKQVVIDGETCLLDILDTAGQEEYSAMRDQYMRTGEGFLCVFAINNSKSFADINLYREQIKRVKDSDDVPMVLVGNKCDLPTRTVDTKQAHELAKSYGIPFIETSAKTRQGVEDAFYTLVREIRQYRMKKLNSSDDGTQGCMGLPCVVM

[3] = target: GDP-bound HRAS wild-type protein (Homo sapiens, UniProt P01112); assay: Binding to HRAS by surface plasmon resonance (SPR), Single Cycle Kinetics; conditions: SPR; GDP-bound HRAS wild-type protein vs GDP-bound KRAS wild-type protein; KD ratio class
Chain of GDP-bound HRAS wild-type protein (P01112 whole entry): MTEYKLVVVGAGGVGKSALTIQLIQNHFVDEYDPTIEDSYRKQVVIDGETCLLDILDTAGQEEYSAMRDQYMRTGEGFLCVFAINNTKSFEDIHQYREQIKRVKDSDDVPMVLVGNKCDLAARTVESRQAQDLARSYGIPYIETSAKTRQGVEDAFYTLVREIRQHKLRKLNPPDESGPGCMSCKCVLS

[4] = target: GDP-bound KRAS wild-type protein (Homo sapiens, UniProt P01116); assay: Binding to KRAS by surface plasmon resonance (SPR), Single Cycle Kinetics; conditions: SPR, Single Cycle Kinetics, 1:1 binding model; GDP-bound KRAS wild-type protein; read-out: KRAS KD
Chain of GDP-bound KRAS wild-type protein (P01116 whole entry): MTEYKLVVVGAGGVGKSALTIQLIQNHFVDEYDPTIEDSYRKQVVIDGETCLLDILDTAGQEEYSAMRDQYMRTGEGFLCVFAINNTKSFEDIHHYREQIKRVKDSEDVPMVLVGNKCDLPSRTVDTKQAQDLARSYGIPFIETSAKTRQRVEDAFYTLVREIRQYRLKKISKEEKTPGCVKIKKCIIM

Row | Compound | IC50 [1] | Kd [4] | NRAS/KRAS (ratio of KD value for NRAS to KD value for KRAS) [2] | HRAS/KRAS (ratio of KD value for HRAS to KD value for KRAS) [3]
1 | CCO[C@@H]1C[C@H]2C(=O)NC3(CCCC3)C(=O)N(C)[C@@H](C3CCCC3)C(=O)N(C)[C@H](C(=O)N(C)C)CC(=O)N(C)[C@@H](CC)C(=O)N[C@@H]([C@@H](C)CC)C(=O)N(C)CC(=O)N(C)[C@H]3CC[C@@H](C)CN(C3=O)[C@@H](Cc3ccc(C(F)(F)F)cc3)C(=O)N(C)CC(=O)N[C@@H](CCc3ccc(C(F)(F)F)c(Cl)c3)C(=O)N2C1 [PP1376] | 3.5 nM | 0.037 nM | B (a compound having 3 or more and less than 10 is denoted as B) | B (a compound having 3 or more and less than 10 is denoted as B)
2 | CCO[C@@H]1C[C@H]2C(=O)NC3(CCCC3)C(=O)N(C)[C@@H](C3CCCC3)C(=O)N(C)[C@H](C(=O)N3CCOCC3)CC(=O)N(C)[C@@H](CC)C(=O)N[C@@H]([C@@H](C)CC)C(=O)N(C)CC(=O)N(C)[C@H]3CC[C@@H](C)CN(C3=O)[C@@H](Cc3ccc(C(F)(F)F)cc3)C(=O)N(C)CC(=O)N[C@@H](CCc3ccc(C(F)(F)F)c(Cl)c3)C(=O)N2C1 [PP1377] | 5.8 nM | 0.087 nM | B (a compound having 3 or more and less than 10 is denoted as B) | B (a compound having 3 or more and less than 10 is denoted as B)
3 | CCO[C@@H]1C[C@H]2C(=O)NC3(CCC3)C(=O)N(C)[C@@H](C3CCCC3)C(=O)N(C)[C@H](C(=O)N3CCOCC3)CC(=O)N(C)[C@@H](CC)C(=O)N[C@@H]([C@@H](C)CC)C(=O)N(C)CC(=O)N(C)[C@H]3CC[C@@H](C)CN(C3=O)[C@@H](Cc3ccc(C(F)(F)F)cc3)C(=O)N(C)CC(=O)N[C@@H](CCc3ccc(C(F)(F)F)c(Cl)c3)C(=O)N2C1 [PP1378] | 6.6 nM | 0.081 nM | B (a compound having 3 or more and less than 10 is denoted as B) | C (A compound having a KD ratio of 0.1 or more and less than 3 is denoted as C)

More lines, main results first:

Row | IC50 [1] | Kd [4] | Compound | NRAS/KRAS (ratio of KD value for NRAS to KD value for KRAS) [2] | HRAS/KRAS (ratio of KD value for HRAS to KD value for KRAS) [3]
4 | 10.3 nM | 0.29 nM | CCO[C@@H]1C[C@H]2C(=O)NC3(CCC3)C(=O)N(C)[C@@H](C3CCCC3)C(=O)N(C)[C@H](C(=O)N3CCOCC3)CC(=O)N(C)[C@@H](CC(C)C)C(=O)N[C@@H]([C@@H](C)CC)C(=O)N3CC[C@H]3C(=O)N(C)[C@H]3CC[C@@H](C)CN(C3=O)[C@@H](Cc3ccc(C(F)(F)F)cc3)C(=O)N(C)CC(=O)N[C@@H](CCc3ccc(C(F)(F)F)c(Cl)c3)C(=O)N2C1 [PP1379] | A (a compound having 10 or more and less than 20 is denoted as A) | B (a compound having 3 or more and less than 10 is denoted as B)
5 | 15.8 nM | 0.068 nM | CC[C@H](C)[C@@H]1NC(=O)[C@H](CC)N(C)C(=O)C[C@@H](C(=O)N(C)C)N(C)C(=O)[C@H](C2CCCC2)N(C)C(=O)C2(CCCC2)NC(=O)[C@@H]2CCCN2C(=O)[C@H](CCc2cc(F)c(C(F)(F)F)c(F)c2)NC(=O)CN(C)C(=O)[C@H](Cc2ccc(C(F)(F)F)cc2)N2C[C@H](C)CC[C@@H](C2=O)N(C)C(=O)CN(C)C1=O [PP1382] | B (a compound having 3 or more and less than 10 is denoted as B) | B (a compound having 3 or more and less than 10 is denoted as B)
6 | 11.2 nM | 0.17 nM | CC[C@H](C)[C@@H]1NC(=O)[C@H](CC)N(C)C(=O)C[C@@H](C(=O)N2CCOCC2)N(C)C(=O)[C@H](C2CCCC2)N(C)C(=O)C2(CCCC2)NC(=O)[C@@H]2CCCN2C(=O)[C@H](CCc2cc(F)c(C(F)(F)F)c(F)c2)NC(=O)CN(C)C(=O)[C@H](Cc2ccc(C(F)(F)F)cc2)N2C[C@H](C)CC[C@@H](C2=O)N(C)C(=O)CN(C)C1=O [PP1383] | B (a compound having 3 or more and less than 10 is denoted as B) | B (a compound having 3 or more and less than 10 is denoted as B)
